Results on twelve compounds are retold here after patent publication US20240317744A1, “Bicyclic Ureas As Kinase Inhibitors” (Incyte Corporation, priority 2023, published 2024).

Assay [1] has as its target T1, catalytic domain (JH1, amino acids 826-1132) of human JAK2 (Homo sapiens, UniProt O60674).
T1 construct: catalytic domain (JH1, amino acids 826-1132) of human JAK2; FLAG (N); biotin (biotinylated); purchased Carna Biosciences 08-445-20N; host or cells: baculovirus expression system
The assay is described as follows: JAK2 LanthaScreen JH1 Binding Assay. The settings on record: JAK2 JH1 1.5 nM, 50 nM tracer, 2 hours at 25° C.; read-out: JH1 BIND. Here is the method: Example A. JAK2 LanthaScreen JH1 Binding Assay
JAK2 JH1 binding assay utilizes catalytic domain (JH1, amino acids 826-1132) of human JAK2 expressed as N-terminal FLAG-tagged, biotinylated protein in a baculovirus expression system (Carna Biosciences, Product #08-445-20N). The assay was conducted in black 384-well polystyrene plates in a final reaction volume of 20 μL. JAK2 JH1 (1.5 nM) was incubated with compounds (100 nL serially diluted in DMSO) in the presence of 50 nM fluorescent JAK2-JH1 tracer and 0.5 nM Streptavidin-Tb cryptate (Cisbio Part #610SATLB) in assay buffer (50 mM Tris, pH=7.5, 10 mM MgCl2, 0.01% Brij-35, 0.1% BSA, 1 mM EGTA, 5% Glycerol and 5 mM DTT). Non-specific binding was accessed in the presence of 2 mM ATP. After incubation for 2 hours at 25° C., LanthaScreen signals were read on a PHERAstar FS plate reader (BMG LABTECH). Data was analyzed with IDBS XLfit and GraphPad Prism 5.0 software using a four parameter dose response curve to determine IC50 for each compound.
A general note: TR-FRET usually uses a lanthanide donor and a delayed reading to cut background.

For assay [2], the target named is T2, pseudo-kinase domain (JH2, amino-acids 536-812) of human Wild Type JAK2 (Homo sapiens, UniProt O60674, F794H/W659A/W777A).
T2 construct: pseudo-kinase domain (JH2, amino-acids 536-812 with 3 surface mutations W659A, W777A, F794H); His (C); purchased BPS Bioscience 79463; host or cells: baculovirus expression system
The assay is described as follows: JAK2 LanthaScreen JH2-WT Binding Assay. The settings on record: JAK2 JH2-WT 0.145 nM, 50 nM tracer, 1 hour at 25° C.; read-out: JH2 BIND WT. The protocol:
Example B. JAK2 LanthaScreen JH2-WT Binding Assay
JAK2 JH2-WT binding assay utilizes pseudo-kinase domain (JH2, amino-acids 536-812 with 3 surface mutations W659A, W777A, F794H) of human Wild Type JAK2 expressed as C-terminal His-Avi-tagged, biotinylated protein in a baculovirus expression system (BPS Bioscience, Catalog #79463). The assay was conducted in black 384-well polystyrene plates in a final reaction volume of 20 μL. JAK2 JH2-WT (0.145 nM) was incubated with compounds (100 nL serially diluted in DMSO) in the presence of 50 nM Fluorescent JAK2-JH2 Tracer (MedChem Express Catalog #HY-102055) and 0.25 nM Streptavidin-Tb cryptate (Cisbio Part #610SATLB) in assay buffer (50 mM Tris, pH=7.5, 10 mM MgCl2, 0.01% Brij-35, 0.1% BSA, 1 mM EGTA, 5% Glycerol and 5 mM DTT). Non-specific binding was accessed in the presence of 2 mM ATP. After incubation for 1 hour at 25° C., LanthaScreen signals were read on a PHERAstar FS plate reader (BMG LABTECH). Data was analyzed with IDBS XLfit and GraphPad Prism 5.0 software using a four parameter dose response curve to determine IC50 for each compound.

Assay [3] addresses T3, pseudo-kinase domain (JH2, amino-acids 536-812) of human V617F mutant JAK2 (Homo sapiens, UniProt O60674, F794H/V617F/W659A/W777A).
T3 construct: pseudo-kinase domain (JH2, amino-acids 536-812 with 3 surface mutations W659A, W777A, F794H); His (C); purchased BPS Bioscience 79498; host or cells: baculovirus expression system
Briefly: JAK2 LanthaScreen JH2-V617F Binding Assay. The settings on record: JAK2 JH2-V617F 0.26 nM, 50 nM tracer, 1 hour at 25° C.; read-out: JH2 BIND V617F. The gist of the method: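 IC50 values came from four-parameter dose-response fits of LanthaScreen signal, read after compounds sat 1 hour at 25° C with 0.26 nM baculovirus-expressed biotinylated protein, 50 nM fluorescent tracer and 0.25 nM streptavidin-Tb cryptate. Non-specific binding was set with 2 mM ATP.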

Assay [4] has as its target catalytic domain (JH1, amino acids 808-1132) of human JAK2 (Homo sapiens, UniProt O60674). Briefly: JAK2 HTRF Enzyme Activity Assay. In kind it is biochemical. The settings on record: ATP 30 µM, 60 minutes at 25° C.; read-out: V617F ENZ 30 UM.

T2 sequence (O60674 536-812 W659A/W777A/F794H): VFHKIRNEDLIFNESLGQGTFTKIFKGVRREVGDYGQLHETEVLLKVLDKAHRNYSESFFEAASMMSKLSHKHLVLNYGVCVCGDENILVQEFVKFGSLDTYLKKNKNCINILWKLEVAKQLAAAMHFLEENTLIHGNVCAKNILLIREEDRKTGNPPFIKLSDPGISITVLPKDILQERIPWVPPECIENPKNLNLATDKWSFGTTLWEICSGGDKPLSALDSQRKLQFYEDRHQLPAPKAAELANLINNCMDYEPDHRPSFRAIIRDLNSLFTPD
Sequence of catalytic domain (JH1, amino acids 808-1132) of human JAK2 (O60674 808-1132 limits assumed): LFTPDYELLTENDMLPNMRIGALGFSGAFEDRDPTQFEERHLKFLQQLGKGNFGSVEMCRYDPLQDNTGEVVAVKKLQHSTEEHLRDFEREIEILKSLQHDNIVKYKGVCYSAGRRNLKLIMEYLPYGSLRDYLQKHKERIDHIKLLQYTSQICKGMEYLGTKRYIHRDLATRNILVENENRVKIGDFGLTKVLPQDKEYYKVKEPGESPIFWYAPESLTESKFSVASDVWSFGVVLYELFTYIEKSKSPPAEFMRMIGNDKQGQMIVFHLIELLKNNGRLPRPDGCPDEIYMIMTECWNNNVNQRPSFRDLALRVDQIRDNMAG
T1 sequence (O60674 826-1132): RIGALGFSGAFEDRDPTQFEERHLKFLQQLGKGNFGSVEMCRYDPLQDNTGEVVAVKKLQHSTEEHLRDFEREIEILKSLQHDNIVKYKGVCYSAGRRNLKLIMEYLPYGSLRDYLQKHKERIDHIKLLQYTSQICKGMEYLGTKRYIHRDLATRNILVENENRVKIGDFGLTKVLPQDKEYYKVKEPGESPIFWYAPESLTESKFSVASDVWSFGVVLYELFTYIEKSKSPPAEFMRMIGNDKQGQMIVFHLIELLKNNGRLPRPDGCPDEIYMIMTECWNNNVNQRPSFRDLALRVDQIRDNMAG
T3 sequence (O60674 536-812 V617F/W659A/W777A/F794H): as the sequence (O60674 536-812 W659A/W777A/F794H) above, with V82F counted along it

Consider `COC(=O)N[C@@H]1CC[C@@H](n2c(=O)n(C)c3cnc(Nc4cccc(-c5ccc6ncccc6c5)n4)cc32)C1` [Example 9, Methyl ((1R,3R)-3-(3-methyl-2-oxo-6-((6-(quinolin-6-yl)pyridin-2-yl)amino)-2,3-dihydro-1H-imidazo[4,5-c]pyridin-1-yl)cyclopentyl)carbamate], for which the IC50 in assay [1] is greater than 1000 nM; in assay [2] it was no more than 10 nM; in assay [3], no more than 10 nM; in assay [4], greater than 1000 nM.

Regarding `[2H]C([2H])([2H])n1c(=O)n([C@@H]2CC[C@@H](NC(=O)OC)C2)c2cc(Nc3cc(C(=O)N4CC5CC5(O)C4)c4cccc(C(F)(F)F)c4n3)ncc21` (stereo partly drawn) [Example 10, Methyl ((1R,3R)-3-(6-((4-(1-hydroxy-3-azabicyclo[3.1.0]hexane-3-carbonyl)-8-(trifluoromethyl)quinolin-2-yl)amino)-3-(methyl-d3)-2-oxo-2,3-dihydro-1H-imidazo[4,5-c]pyridin-1-yl)cyclopentyl)carbamate], the IC50 is 500 to 1000 nM in assay [1], no more than 10 nM in assay [2], no more than 10 nM in assay [3] and 100 to 500 nM in assay [4].

Turning to `COC(=O)N[C@@H]1CC[C@@H](n2c(=O)n(C)c3cnc(Nc4cccc(-c5ccc6c(c5)OCCN6C)n4)cc32)C1` [Example 11, Methyl ((1R,3R)-3-(3-methyl-6-((6-(4-methyl-3,4-dihydro-2H-benzo[b][1,4]oxazin-7-yl)pyridin-2-yl)amino)-2-oxo-2,3-dihydro-1H-imidazo[4,5-c]pyridin-1-yl)cyclopentyl)carbamate], the IC50 in assay [1] was greater than 1000 nM; in assay [2], no more than 10 nM; in assay [3] it was no more than 10 nM; in assay [4], greater than 1000 nM.

For the compound `[2H]C([2H])([2H])n1c(=O)n([C@@H]2CC[C@@H](NC(=O)OC)C2)c2cc(Nc3cc(C(=O)N4CC5CC4CO5)c4cccc(C(F)(F)F)c4n3)ncc21` (stereo partly drawn) [Example 12, Methyl ((1R,3R)-3-(6-((4-(2-oxa-5-azabicyclo[2.2.1]heptane-5-carbonyl)-8-(trifluoromethyl)quinolin-2-yl)amino)-3-(methyl-d3)-2-oxo-2,3-dihydro-1H-imidazo[4,5-c]pyridin-1-yl)cyclopentyl)carbamate], the IC50 in assay [1] is greater than 1000 nM; in assay [2], no more than 10 nM; in assay [3], no more than 10 nM; in assay [4], greater than 1000 nM.

Regarding `[2H]C([2H])([2H])n1c(=O)n([C@@H]2CC[C@@H](NC(=O)OC)C2)c2cc(Nc3cc(C(=O)N4CCOC5CC54)c4cccc(C(F)(F)F)c4n3)ncc21` (stereo partly drawn) [Example 13, Methyl ((1R,3R)-3-(6-((4-(2-oxa-5-azabicyclo[4.1.0]heptane-5-carbonyl)-8-(trifluoromethyl)quinolin-2-yl)amino)-3-(methyl-d3)-2-oxo-2,3-dihydro-1H-imidazo[4,5-c]pyridin-1-yl)cyclopentyl)carbamate], the IC50 in assay [1] is 500 to 1000 nM; in assay [2], no more than 10 nM; in assay [3], no more than 10 nM; in assay [4], 500 to 1000 nM.

For the compound `COC(=O)Nc1cc(Nc2cc3c(cn2)n(C)c(=O)n3[C@@H]2CC[C@@H](NC(=O)OC)C2)cc(-c2cn(C)nn2)c1` [Example 14, Methyl (3-((1-((1R,3R)-3-((methoxycarbonyl)amino)cyclopentyl)-3-methyl-2-oxo-2,3-dihydro-1H-imidazo[4,5-c]pyridin-6-yl)amino)-5-(1-methyl-1H-1,2,3-triazol-4-yl)phenyl)carbamate], the IC50 in assay [1] is greater than 1000 nM; in assay [2], no more than 10 nM; in assay [3], 10 to 100 nM; in assay [4], greater than 1000 nM.

In the case of `COC(=O)Nc1cc(Nc2cc3c(cn2)n(C)c(=O)n3[C@@H]2CC[C@@H](NC(=O)OC)C2)cc(C2CCN(C)CC2)c1` [Example 15, Methyl (3-((1-((1R,3R)-3-((methoxycarbonyl)amino)cyclopentyl)-3-methyl-2-oxo-2,3-dihydro-1H-imidazo[4,5-c]pyridin-6-yl)amino)-5-(1-methylpiperidin-4-yl)phenyl)carbamate], the IC50 in assay [1] was greater than 1000 nM; in assay [2], no more than 10 nM; in assay [3], 10 to 100 nM; in assay [4] it was greater than 1000 nM.

For `[2H]C([2H])([2H])n1c(=O)n([C@@H]2CC[C@@H](NC(=O)OC)C2)c2cc(Nc3cc(C(=O)N4CCCC(F)(F)C4)c4cccc(C(F)(F)F)c4n3)ncc21` [Example 16, Methyl ((1R,3R)-3-(6-((4-(3,3-difluoropiperidine-1-carbonyl)-8-(trifluoromethyl)quinolin-2-yl)amino)-3-(methyl-d3)-2-oxo-2,3-dihydro-1H-imidazo[4,5-c]pyridin-1-yl)cyclopentyl)carbamate], the IC50 in assay [1] is greater than 1000 nM; in assay [2] it was no more than 10 nM; in assay [3], no more than 10 nM; in assay [4], greater than 1000 nM.

In the case of `COC(=O)N[C@@H]1CC[C@@H](n2c(=O)n(C)c3cnc(Nc4cc(NC(=O)[C@H]5CC5(F)F)cc(C5CCOCC5)c4)cc32)C1` [Example 17, Methyl ((1R,3R)-3-(6-((3-((R)-2,2-difluorocyclopropane-1-carboxamido)-5-(tetrahydro-2H-pyran-4-yl)phenyl)amino)-3-methyl-2-oxo-2,3-dihydro-1H-imidazo[4,5-c]pyridin-1-yl)cyclopentyl)carbamate], the IC50 in assay [1] was greater than 1000 nM; in assay [2] it was no more than 10 nM; in assay [3] it was no more than 10 nM; in assay [4] it was greater than 1000 nM.

In the case of `[2H]C([2H])([2H])n1c(=O)n([C@@H]2CC[C@@H](NC(=O)OC)C2)c2cc(Nc3ccc4cc(NC5CCC(F)(F)C5)cc(C(F)(F)F)c4n3)ncc21` (stereo partly drawn) [Example 18, Methyl ((1R,3R)-3-(6-((6-((3,3-difluorocyclopentyl)amino)-8-(trifluoromethyl)quinolin-2-yl)amino)-3-(methyl-d3)-2-oxo-2,3-dihydro-1H-imidazo[4,5-c]pyridin-1-yl)cyclopentyl)carbamate], the IC50 in assay [1] is greater than 1000 nM; in assay [2], no more than 10 nM; in assay [3], no more than 10 nM; in assay [4], greater than 1000 nM.

Take `COC(=O)N[C@@H]1CC[C@@H](n2c(=O)n(C)c3cnc(Nc4cc(NC(=O)C5CCC5)cc(C5CCOCC5)c4)cc32)C1` [Example 19, Methyl ((1R,3R)-3-(6-((3-(cyclobutanecarboxamido)-5-(tetrahydro-2H-pyran-4-yl)phenyl)amino)-3-methyl-2-oxo-2,3-dihydro-1H-imidazo[4,5-c]pyridin-1-yl)cyclopentyl)carbamate]: the IC50 in assay [1] was greater than 1000 nM; in assay [2], no more than 10 nM; in assay [3], no more than 10 nM; in assay [4], greater than 1000 nM.

As for `[2H]C([2H])([2H])n1c(=O)n([C@@H]2CC[C@@H](NC(=O)OC)C2)c2cc(Nc3ccc4cc(-c5cnn(C)c5)cc(C(F)(F)F)c4n3)ncc21` [Example 20, Methyl ((1R,3R)-3-(3-(methyl-d3)-6-((6-(1-methyl-1H-pyrazol-4-yl)-8-(trifluoromethyl)quinolin-2-yl)amino)-2-oxo-2,3-dihydro-1H-imidazo[4,5-c]pyridin-1-yl)cyclopentyl)carbamate], the IC50 is greater than 1000 nM in assay [1], no more than 10 nM in assay [2], no more than 10 nM in assay [3] and greater than 1000 nM in assay [4].
